Measured values as given in publication doi:10.1101/2022.11.06.515312v1 (biorxiv, 2022).

T1: OsLAT1 (Oryza sativa, UniProt Q6Z8D0)
T1 sequence (Q6Z8D0 1-531): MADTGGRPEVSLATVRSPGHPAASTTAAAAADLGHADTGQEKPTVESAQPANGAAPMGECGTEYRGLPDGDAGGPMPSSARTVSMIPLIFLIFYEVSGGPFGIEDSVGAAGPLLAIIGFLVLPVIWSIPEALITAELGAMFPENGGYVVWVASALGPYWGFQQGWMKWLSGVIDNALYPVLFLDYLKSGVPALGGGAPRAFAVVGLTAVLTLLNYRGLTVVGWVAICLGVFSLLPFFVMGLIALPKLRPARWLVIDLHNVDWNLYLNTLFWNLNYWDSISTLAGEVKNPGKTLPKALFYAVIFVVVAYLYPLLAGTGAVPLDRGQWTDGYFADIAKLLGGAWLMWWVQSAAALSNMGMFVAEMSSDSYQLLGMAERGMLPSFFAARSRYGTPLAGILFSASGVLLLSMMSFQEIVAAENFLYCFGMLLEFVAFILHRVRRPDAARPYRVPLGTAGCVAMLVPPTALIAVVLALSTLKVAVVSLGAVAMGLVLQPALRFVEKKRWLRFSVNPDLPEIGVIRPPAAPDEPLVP


How the values were obtained:
Details in all cases: 5-50 uM substrate, 1 h, 0.333 mM MES pH 5.7, 2% galactose
OsLAT5 = test: uptake into yeast, UPLC-MS/MS, vector control subtracted; assay type: cell-based, Oryza sativa subsp. japonica
OsLAT1 = biological target: T1, OsLAT1; test: as above
[1] = substrate: c1cc[n+]2c(c1)-c1cccc[n+]1CC2; test: cells, lysate or membranes

Row | Molecule | Km (OsLAT5) [µM] | Km (OsLAT1) [µM] | Km [1] [µM]
1 | c1cc[n+]2c(c1)-c1cccc[n+]1CC2 [diquat, 1,10-ethylene-2,20-bipyridinium dibromide] | 13.8 ± 3.24 | – | –
2 | C[n+]1ccc(-c2cc[n+](C)cc2)cc1 [paraquat] | 11.7 ± 4.04 | 40.8 ± 9.61 | –
3 | OsLAT1 (Oryza sativa Japonica Group) (protein) MADTGGRPEVSLATVRSPGHPAASTTAAAAADLGHADTGQEKPTVESAQPANGAAPMGECGTEYRGLPDGDAGGPMPSSARTVSMIPLIFLIFYEVSGGPFGIEDSVGAAGPLLAIIGFLVLPVIWSIPEALITAELGAMFPENGGYVVWVASALGPYWGFQQGWMKWLSGVIDNALYPVLFLDYLKSGVPALGGGAPRAFAVVGLTAVLTLLNYRGLTVVGWVAICLGVFSLLPFFVMGLIALPKLRPARWLVIDLHNVDWNLYLNTLFWNLNYWDSISTLAGEVKNPGKTLPKALFYAVIFVVVAYLYPLLAGTGAVPLDRGQWTDGYFADIAKLLGGAWLMWWVQSAAALSNMGMFVAEMSSDSYQLLGMAERGMLPSFFAARSRYGTPLAGILFSASGVLLLSMMSFQEIVAAENFLYCFGMLLEFVAFILHRVRRPDAARPYRVPLGTAGCVAMLVPPTALIAVVLALSTLKVAVVSLGAVAMGLVLQPALRFVEKKRWLRFSVNPDLPEIGVIRPPAAPDEPLVP | – | – | 23.98 ± 6.77
